The values that follow come from patent US20250154144A1 (CHILDREN'S HOSPITAL MEDICAL CENTER, priority 2021, published 2025).

The subject of one assay is MOLM14 D835Y cells. Description: cells. Format: cell-based. To be noted: Homo sapiens, MOLM-14, 48 h, 48 hours, Cell Titer Glo; read-out: MOLM14 D835Y IC50.
The next assay relates to MOLM14 F691L cells. Description: cells. Format: cell-based. The conditions noted are these: Homo sapiens, MOLM-14, 48 h, read-out: MOLM14 F691L IC50.
For a further assay, the target named is T1, FLT3 (Homo sapiens, UniProt P36888).
T1 sequence (P36888 610-943 limits assumed): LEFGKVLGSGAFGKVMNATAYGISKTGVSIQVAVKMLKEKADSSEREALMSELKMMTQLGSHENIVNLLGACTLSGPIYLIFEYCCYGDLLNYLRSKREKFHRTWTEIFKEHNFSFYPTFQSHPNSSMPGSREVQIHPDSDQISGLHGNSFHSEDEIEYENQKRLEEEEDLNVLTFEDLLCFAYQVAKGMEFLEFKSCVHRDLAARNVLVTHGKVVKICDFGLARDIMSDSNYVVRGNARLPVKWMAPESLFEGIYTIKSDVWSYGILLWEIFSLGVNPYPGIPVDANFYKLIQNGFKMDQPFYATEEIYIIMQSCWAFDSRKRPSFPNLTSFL
The assay is described as follows: RBC HotSpot Kinase Assay, FLT3.

Another assay addresses IRAK1 (Homo sapiens, UniProt P51617). The assay is described as follows: RBC HotSpot Kinase Assay, IRAK1.
The next assay has as its target T2, IRAK4 (Homo sapiens, UniProt Q9NWZ3).
T2 sequence (Q9NWZ3 1-460): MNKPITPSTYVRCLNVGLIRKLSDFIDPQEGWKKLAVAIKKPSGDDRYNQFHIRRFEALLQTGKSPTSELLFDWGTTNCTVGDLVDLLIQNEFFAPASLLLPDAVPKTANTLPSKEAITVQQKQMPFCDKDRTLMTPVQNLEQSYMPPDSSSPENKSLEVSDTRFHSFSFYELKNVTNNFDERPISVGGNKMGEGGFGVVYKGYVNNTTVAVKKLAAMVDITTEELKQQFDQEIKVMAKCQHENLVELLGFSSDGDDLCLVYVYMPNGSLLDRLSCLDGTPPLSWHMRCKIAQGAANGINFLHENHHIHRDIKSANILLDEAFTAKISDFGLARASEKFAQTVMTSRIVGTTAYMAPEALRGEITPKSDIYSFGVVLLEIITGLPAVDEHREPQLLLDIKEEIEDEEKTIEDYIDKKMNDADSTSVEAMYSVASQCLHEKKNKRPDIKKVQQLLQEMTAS
The assay is described as follows: RBC HotSpot Kinase Assay, IRAK4.

Another assay concerns THP1 cells. The assay is described as follows: Combination drug screening, Cell Titer Glo, 10 × 10 matrix, THP1 cells. Format: cell-based. The conditions noted are these: THP1 cells; for Excess HSA Score: 10 × 10.
A further assay has as its system MOLM14(D835Y) cells. Format: cell-based. To be noted: MOLM14(D835Y) cells; for Excess HSA Score: 10 × 10.
Where [1] appears, read: combination with (+)-BAY-1251152.
Where [2] appears, read: combination with Eprenetapopt/APR-246.
[3] abbreviates: combination with Venetoclax (ABT-199).

As a reminder, the IC50 is the concentration that gives 50% inhibition.

Where two headings read alike, the source gives them in different places. A value given as a limit tells only on which side of the number the result lay.

IRAK1, sequence (P51617 whole entry): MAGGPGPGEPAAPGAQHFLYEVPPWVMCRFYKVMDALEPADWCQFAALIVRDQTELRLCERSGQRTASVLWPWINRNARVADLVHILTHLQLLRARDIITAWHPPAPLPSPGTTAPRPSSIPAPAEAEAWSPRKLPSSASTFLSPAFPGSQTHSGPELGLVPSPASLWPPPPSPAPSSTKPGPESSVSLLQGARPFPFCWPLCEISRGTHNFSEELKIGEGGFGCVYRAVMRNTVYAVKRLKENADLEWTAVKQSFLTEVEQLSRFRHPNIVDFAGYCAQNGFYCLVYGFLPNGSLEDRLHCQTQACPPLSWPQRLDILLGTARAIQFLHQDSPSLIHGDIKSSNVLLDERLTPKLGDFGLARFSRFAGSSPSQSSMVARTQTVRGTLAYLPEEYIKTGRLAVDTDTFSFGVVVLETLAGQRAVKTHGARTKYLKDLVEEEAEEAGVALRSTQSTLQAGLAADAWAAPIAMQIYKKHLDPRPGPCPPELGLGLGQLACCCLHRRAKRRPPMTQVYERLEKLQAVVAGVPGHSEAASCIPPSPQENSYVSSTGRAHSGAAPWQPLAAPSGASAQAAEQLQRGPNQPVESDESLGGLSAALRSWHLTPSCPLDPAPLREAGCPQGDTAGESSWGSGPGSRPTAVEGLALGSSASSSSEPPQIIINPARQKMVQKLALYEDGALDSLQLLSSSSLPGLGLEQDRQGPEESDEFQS

As to `COc1cc2ncc(-c3cncc(N[C@@H]4CCCNC4)n3)n2cc1C(C)(C)O` [Compound 20, (R)-2-(7-methoxy-3-(6-(piperidin-3-ylamino)pyrazin-2-yl)imidazo[1,2-a]pyridin-6-yl)propan-2-ol], the IC50 was 43 nM with MOLM14 D835Y cells; 61 nM in the assay on MOLM14 F691L cells (48 hours, Cell Titer Glo); less than 0.5 nM on FLT3 (FLT3 IC50); 5 nM at IRAK1 (IRAK1 IC50); 1 nM at IRAK4 (IRAK4 IC50).
In the case of `O=C1CCCN1c1cn2c(-c3ccnc(N[C@H]4CNC[C@@H]4F)n3)cnc2cn1` [Compound 46, 1-(3-(2-(((3S,4S)-4-fluoropyrrolidin-3-yl)amino)pyrimidin-4-yl)imidazo[1,2-a]pyrazin-6-yl)pyrrolidin-2-one], the IC50 was 77 nM with MOLM14 D835Y cells; 1370 nM in the assay with MOLM14 F691L cells (48 hours, Cell Titer Glo); less than 0.5 nM on FLT3 (FLT3 IC50); 64 nM against IRAK1 (IRAK1 IC50); 12 nM at IRAK4 (IRAK4 IC50).
Take `FC(F)COc1ccn2c(-c3cncc(N[C@@H]4CCCNC4)n3)cnc2c1` [Compound 8, (R)-6-(7-(2,2-difluoroethoxy)imidazo[1,2-a]pyridin-3-yl)-N-(piperidin-3-yl)pyrazin-2-amine]: the IC50 is 14 nM in the assay on MOLM14 D835Y cells; 39 nM in the assay on MOLM14 F691L cells (48 hours, Cell Titer Glo); less than 0.5 nM on FLT3 (FLT3 IC50); 42 nM on IRAK1 (IRAK1 IC50); less than 0.5 nM against IRAK4 (IRAK4 IC50).
Take `FC(F)Oc1ccn2c(-c3cncc(N[C@H]4CNC[C@@H]4F)n3)cnc2c1` [Compound 13, 6-(7-(difluoromethoxy)imidazo [1,2-a]pyridin-3-yl)-N-((3S,4S)-4-fluoropyrrolidin-3-yl)pyrazin-2-amine]: the 50% inhibitory concentration (IC50) came to 307 nM in the assay on MOLM14 D835Y cells; 864 nM in the assay on MOLM14 F691L cells (48 hours, Cell Titer Glo); 1 nM on FLT3 (FLT3 IC50); 86 nM on IRAK1 (IRAK1 IC50); 21 nM at IRAK4 (IRAK4 IC50).
The like results for `FC(F)Oc1ccn2c(-c3cncc(N[C@@H]4CCCNC4)n3)cnc2c1` [Compound 14, (R)-6-(7-(difluoromethoxy)imidazo [1,2-a]pyridin-3-yl)-N-(piperidin-3-yl)pyrazin-2-amine] were, in that order, 86 nM, 193 nM, 0.8 nM, 447 nM and 12 nM.
As for `COc1cc2ncc(-c3ccnc(N[C@@H]4CCCNC4)n3)n2cc1C(C)(O)C(F)(F)F` (single isomer, unassigned) [Compound 59], the “Excess HSA Score” value is recorded as −945.9 in the assay with THP1 cells (setting [1]); 249.9 in the assay with THP1 cells (combination with AMG-232); −164.6 in the assay with THP1 cells (combination with AZD-5363); 269.2 with THP1 cells (setting [2]); 205.2 in the assay with THP1 cells (combination with Ivosidenib); 30.374 with THP1 cells (combination with Lenalidomide). Moreover, the “Excess HSA Score” value in the assay with THP1 cells (combination with Palbociclib) is recorded as −620.1; with THP1 cells (combination with Prednisolone), 486.6; in the assay with THP1 cells (combination with SNDX-5613), 68.13; with THP1 cells (combination with TNO-155), 213.8; in the assay with THP1 cells (combination with Trametinib), −374.5; in the assay with THP1 cells (combination with Ulixertinib), 164.2711. For the same compound, the “Excess HSA Score” value in the assay with THP1 cells (setting [3]) is on record as −1422; in the assay with MOLM14(D835Y) cells (setting [1]), −448.2; with MOLM14(D835Y) cells (combination with AMG-232) it was −416.2; with MOLM14(D835Y) cells (combination with AZD-5363), −316.4244; in the assay on MOLM14(D835Y) cells (setting [2]), −22.76; with MOLM14(D835Y) cells (combination with Ivosidenib), 107.6. Further, the “Excess HSA Score” value in the assay with MOLM14(D835Y) cells (combination with Lenalidomide) is recorded as 395.8; with MOLM14(D835Y) cells (combination with Palbociclib), −185.3; with MOLM14(D835Y) cells (combination with Prednisolone) it was 66.52; in the assay on MOLM14(D835Y) cells (combination with SNDX-5613) it was 130.9; in the assay with MOLM14(D835Y) cells (combination with TNO-155) it was −722.6; in the assay with MOLM14(D835Y) cells (combination with Trametinib), −383. Also, the “Excess HSA Score” value with MOLM14(D835Y) cells (combination with Ulixertinib) is −473; in the assay on MOLM14(D835Y) cells (setting [3]), −1215. Moreover, the Comments entry in the assay on THP1 cells (combination with Lenalidomide) was “Antagonistic”; in the assay on THP1 cells (setting [3]), “Synergistic”; in the assay on MOLM14(D835Y) cells (combination with Prednisolone), “Antagonistic”; in the assay with MOLM14(D835Y) cells (setting [3]) it was “Synergistic”. The IC50 at FLT3 (read-out: FLT3 IC50), on IRAK1 (read-out: IRAK1 IC50) and on IRAK4 (read-out: IRAK4 IC50) was less than 0.5 nM each time.
In the case of `FC(F)Oc1ccn2c(-c3ccnc(N[C@H]4CNC[C@@H]4F)n3)cnc2c1` [Compound 34, 4-(7-(difluoromethoxy)imidazo[1,2-a]pyridin-3-yl)-N-((3S,4S)-4-fluoropyrrolidin-3-yl)pyrimidin-2-amine], the half-inhibitory concentration (IC50) in the assay with MOLM14 D835Y cells was 86 nM; in the assay with MOLM14 F691L cells (48 hours, Cell Titer Glo) it was 1090 nM; against FLT3 (FLT3 IC50), less than 0.5 nM; against IRAK1 (IRAK1 IC50) it was 10 nM; against IRAK4 (IRAK4 IC50), 5 nM.
On to `COc1ccn2c(-c3ccnc(N[C@H]4CNCC[C@@H]4F)n3)cnc2c1` [Compound 30, N-((3S,4S)-4-fluoropiperidin-3-yl)-4-(7-methoxyimidazo[1,2-a]pyridin-3-yl)pyrimidin-2-amine], for which the IC50 in the assay with MOLM14 F691L cells worked out at 61 nM. For the same compound, the “Excess HSA Score” value was −655.1 in the assay with THP1 cells (setting [1]); −76.43 with THP1 cells (combination with AMG-232); −13.97 with THP1 cells (combination with AZD-5363); 389.5 with THP1 cells (setting [2]); 59.9 with THP1 cells (combination with Ivosidenib); −90.11 in the assay on THP1 cells (combination with Lenalidomide). Besides, the “Excess HSA Score” value in the assay with THP1 cells (combination with Palbociclib) is given as −678.3; in the assay with THP1 cells (combination with Prednisolone) it was 188.1; in the assay with THP1 cells (combination with SNDX-5613), 1.322; in the assay with THP1 cells (combination with TNO-155) it was 591.3; with THP1 cells (combination with Trametinib), −203.6; in the assay with THP1 cells (combination with Ulixertinib), −362.3. Besides, the “Excess HSA Score” value is listed as −1632 with THP1 cells (setting [3]); −230 with MOLM14(D835Y) cells (setting [1]); −524.3 in the assay on MOLM14(D835Y) cells (combination with AMG-232); −738.1 with MOLM14(D835Y) cells (combination with AZD-5363); −284.6 with MOLM14(D835Y) cells (setting [2]); −74.07 in the assay with MOLM14(D835Y) cells (combination with Ivosidenib). Besides, the “Excess HSA Score” value is on record as 299.3 with MOLM14(D835Y) cells (combination with Lenalidomide); −448.3 in the assay with MOLM14(D835Y) cells (combination with Palbociclib); 3.447 in the assay on MOLM14(D835Y) cells (combination with Prednisolone); −303.5 in the assay with MOLM14(D835Y) cells (combination with SNDX-5613); −922.2 in the assay on MOLM14(D835Y) cells (combination with TNO-155); −313.7 in the assay with MOLM14(D835Y) cells (combination with Trametinib). Besides, the entries for the “Excess HSA Score” value with MOLM14(D835Y) cells (combination with Ulixertinib) and in the assay on MOLM14(D835Y) cells (setting [3]) were 14.83 and −1291, respectively. The Comments entry was “Antagonistic” in the assay with THP1 cells (combination with Ivosidenib); “Additive” in the assay on THP1 cells (combination with SNDX-5613); “Synergistic” with THP1 cells (setting [3]); “Antagonistic” in the assay on MOLM14(D835Y) cells (combination with Prednisolone); “Synergistic” in the assay with MOLM14(D835Y) cells (setting [3]).
Turning to `CC(C)Oc1ccn2c(-c3cncc(N[C@@H]4CCCNC4)n3)cnc2c1` [Compound 1, 6-(7-isopropoxyimidazo[1,2-a]pyridin-3-yl)-N-[(3R)-3-piperidyl]pyrazin-2-amine], the 50% inhibitory concentration (IC50) with MOLM14 D835Y cells is 37 nM; in the assay with MOLM14 F691L cells (48 hours, Cell Titer Glo), 73 nM; at FLT3 (FLT3 IC50) it was less than 0.5 nM; against IRAK1 (IRAK1 IC50), 111 nM; at IRAK4 (IRAK4 IC50), 2 nM.
